# Experimental data published in patent US9056069B2, “Cancer therapy based on tumor associated antigens derived from cyclin D1” (IMMATICS BIOTECHNOLOGIES GMBH, priority 2010, dated 2015).
# “Also recorded” adds a separate entry of the source.
# Assays:
# [1] = system: mRCC; type: in vivo, human
# Text: Some patients received a prior TKI therapy with sunitinib or sorafenib, others a prior cytokine therapy with interferon or interleukin.
# Both patient groups were followed up for progression-free survival (PFS) and overall survival (OS).
# [2] = system: HLA-A*02 positive tumor cells endogenously expressing Cyclin D1; conditions: allo-restricted T cells of HLA-A2-negative donors; cited from earlier work
# [3] = system: CTL; conditions: healthy donors, colon cancer and mantle cell lymphoma patients; autologous CD40-activated B cells as APCs; cited from earlier work
# [4] = system: HLA class-II; assay: Binding to HLA class-II; set-up: species or system human
compound,measurement,setting,value
"LLGATCMFV (listed as Homo sapiens) [CCN-001, cyclin D1-derived peptide, aa 101-109]",survival of patients responding against CCN-001 versus non-CCN-001-responding patients,[1]; all vaccinated patients,significant longer survival; also recorded: survive significantly longer
same,favorable effect of T cell response against CCN-001 on survival,[1]; patient group pretreated with cyclophosphamide,even more evident
same,lysis of tumor cells by T cell clones recognizing the peptide,[2],could lyse HLA-A*02 positive tumor cells endogenously expressing Cyclin D1
same,generation of epitope-specific CTL,[3],could be generated from HLA-A2+ donors
"NPPSMVAAGSVVAAV (listed as Homo sapiens) [CCN-003, cyclin D1-derived peptide, aa 198-212]",HLA restriction,[4],appears DRB1*0401 restricted
same,binding to HLA class-II,[4],binds to HLA class-II
O=P1(N(CCCl)CCCl)NCCCO1 (stereo not shown) [cyclophosphamide],effect of prior low-dose cyclophosphamide treatment on outcome of vaccine treatment,[1]; cyclophosphamide 300 mg/m2 single infusion before vaccination,further significantly improved the outcome
